How the values were obtained:
Integrin alpha-4/beta-7 = target: T1, Integrin alpha-4/beta-7 (Homo sapiens, UniProt P13612+P26010); experiment: Binding affinity towards […] receptor in human RPMI-8866 B-cell line using [125I]MAdCAM-Ig as radioligand
T1 sequence (P13612 whole entry): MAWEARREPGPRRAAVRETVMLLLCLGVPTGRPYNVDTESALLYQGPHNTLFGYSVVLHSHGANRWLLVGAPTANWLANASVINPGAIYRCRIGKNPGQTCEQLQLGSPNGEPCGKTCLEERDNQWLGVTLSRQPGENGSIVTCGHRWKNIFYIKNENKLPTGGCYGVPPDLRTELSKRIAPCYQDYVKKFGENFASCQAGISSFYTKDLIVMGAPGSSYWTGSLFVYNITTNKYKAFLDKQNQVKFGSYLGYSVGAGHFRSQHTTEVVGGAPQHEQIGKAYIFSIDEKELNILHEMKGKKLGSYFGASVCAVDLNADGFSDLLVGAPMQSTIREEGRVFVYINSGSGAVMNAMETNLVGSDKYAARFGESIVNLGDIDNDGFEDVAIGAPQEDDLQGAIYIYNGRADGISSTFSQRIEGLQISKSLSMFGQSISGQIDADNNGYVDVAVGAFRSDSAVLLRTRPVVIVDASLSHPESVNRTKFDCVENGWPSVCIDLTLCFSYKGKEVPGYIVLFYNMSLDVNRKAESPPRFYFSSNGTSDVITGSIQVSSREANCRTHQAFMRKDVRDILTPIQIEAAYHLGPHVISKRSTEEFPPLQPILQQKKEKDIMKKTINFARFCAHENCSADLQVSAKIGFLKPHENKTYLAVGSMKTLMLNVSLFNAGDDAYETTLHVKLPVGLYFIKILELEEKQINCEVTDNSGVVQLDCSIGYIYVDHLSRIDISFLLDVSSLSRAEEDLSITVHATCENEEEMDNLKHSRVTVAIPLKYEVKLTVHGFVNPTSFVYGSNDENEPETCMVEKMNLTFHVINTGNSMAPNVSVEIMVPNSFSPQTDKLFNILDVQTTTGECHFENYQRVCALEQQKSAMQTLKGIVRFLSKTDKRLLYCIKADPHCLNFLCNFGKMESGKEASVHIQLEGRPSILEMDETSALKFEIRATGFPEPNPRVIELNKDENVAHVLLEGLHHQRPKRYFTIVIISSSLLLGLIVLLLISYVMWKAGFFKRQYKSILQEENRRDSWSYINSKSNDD
T1 sequence (P26010 whole entry): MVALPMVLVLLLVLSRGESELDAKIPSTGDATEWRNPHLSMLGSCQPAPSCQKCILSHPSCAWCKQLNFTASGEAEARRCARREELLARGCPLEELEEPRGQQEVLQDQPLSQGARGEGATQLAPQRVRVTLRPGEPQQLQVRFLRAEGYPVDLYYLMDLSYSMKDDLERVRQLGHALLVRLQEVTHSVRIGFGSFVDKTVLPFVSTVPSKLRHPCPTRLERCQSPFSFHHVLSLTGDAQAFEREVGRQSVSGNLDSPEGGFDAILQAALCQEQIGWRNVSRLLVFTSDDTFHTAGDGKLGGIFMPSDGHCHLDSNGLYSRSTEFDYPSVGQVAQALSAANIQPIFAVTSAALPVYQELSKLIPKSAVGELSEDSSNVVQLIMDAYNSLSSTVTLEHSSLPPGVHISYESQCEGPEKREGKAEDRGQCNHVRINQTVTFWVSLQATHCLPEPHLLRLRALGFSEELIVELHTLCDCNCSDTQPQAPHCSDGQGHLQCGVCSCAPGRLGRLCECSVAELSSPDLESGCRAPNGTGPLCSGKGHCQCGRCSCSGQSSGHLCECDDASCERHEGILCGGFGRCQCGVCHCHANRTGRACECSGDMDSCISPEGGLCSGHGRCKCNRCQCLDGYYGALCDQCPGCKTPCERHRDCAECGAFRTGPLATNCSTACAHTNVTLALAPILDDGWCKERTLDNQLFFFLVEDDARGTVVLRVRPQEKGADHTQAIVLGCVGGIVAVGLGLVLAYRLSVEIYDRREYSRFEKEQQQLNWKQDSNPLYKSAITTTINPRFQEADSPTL

Integrin alpha-4/beta-1 = Integrin alpha-4/beta-1 (Homo sapiens, UniProt P05556+P13612); experiment: Binding affinity towards VLA-4 (alpha4 beta-1) receptor in human Jurkat cells using [125I]VCAM-Ig as radioligand; format: cell-based
[1] = target: Integrin alpha-4/beta-7 (Homo sapiens) (UniProt P13612+P26010); experiment: Percent inhibition of [125I]VCAM-Ig binding to human integrin alpha4-beta7 receptor of RPMI-8866 cells at 100 nM; format: cell-based

Sequence of Integrin alpha-4/beta-1 (P05556 whole entry, one chain of several): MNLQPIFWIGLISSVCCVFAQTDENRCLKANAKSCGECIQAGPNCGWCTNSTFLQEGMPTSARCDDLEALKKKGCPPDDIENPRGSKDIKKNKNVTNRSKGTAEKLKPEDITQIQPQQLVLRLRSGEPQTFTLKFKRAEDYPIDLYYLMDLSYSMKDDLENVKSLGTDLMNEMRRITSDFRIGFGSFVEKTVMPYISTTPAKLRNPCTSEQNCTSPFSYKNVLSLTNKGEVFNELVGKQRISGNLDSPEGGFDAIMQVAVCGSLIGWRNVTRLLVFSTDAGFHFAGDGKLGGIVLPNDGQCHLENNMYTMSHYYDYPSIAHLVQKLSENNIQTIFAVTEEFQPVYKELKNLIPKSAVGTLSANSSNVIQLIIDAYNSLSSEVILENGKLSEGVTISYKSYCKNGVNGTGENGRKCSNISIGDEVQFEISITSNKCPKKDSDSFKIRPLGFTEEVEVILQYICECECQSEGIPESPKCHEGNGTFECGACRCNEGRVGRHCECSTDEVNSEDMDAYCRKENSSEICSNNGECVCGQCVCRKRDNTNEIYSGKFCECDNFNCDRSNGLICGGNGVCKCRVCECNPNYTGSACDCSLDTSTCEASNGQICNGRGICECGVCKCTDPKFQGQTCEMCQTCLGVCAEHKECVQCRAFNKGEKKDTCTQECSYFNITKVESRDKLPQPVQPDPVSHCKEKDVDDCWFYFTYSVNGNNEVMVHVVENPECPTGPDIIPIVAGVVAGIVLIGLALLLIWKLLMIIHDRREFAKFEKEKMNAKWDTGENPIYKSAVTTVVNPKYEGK

Row | SMILES | IC50 (Integrin alpha-4/beta-7) [nM] | IC50 (Integrin alpha-4/beta-1) [nM] | inhibition [1] [%]
1 | O=C(O)[C@H](Cc1ccc(-c2ccccc2)cc1)NC(=O)C1(S(=O)(=O)Cc2ccccc2)CCCC1 | – | 81 | -7
2 | Cc1ccc(S(=O)(=O)C2(C(=O)N[C@@H](Cc3ccc(-c4ccccc4)cc3)C(=O)O)CCCC2)cc1 | – | 28 | 2
3 | O=C(O)[C@H](Cc1ccc(-c2ccccc2)cc1)NC(=O)C1(S(=O)(=O)c2ccccc2)CCCC1 | – | 28 | 18
4 | COc1ccccc1-c1ccc(C[C@H](NC(=O)C2(S(=O)(=O)c3ccccc3)CCN(C(C)(C)C)CC2)C(=O)O)cc1 | 9220 | 56 | –
5 | O=C(O)[C@H](Cc1ccc(-c2ccccc2)cc1)NC(=O)C1(S(=O)(=O)c2ccc(Br)cc2)CCCC1 | – | 23 | 20
6 | O=C(O)[C@H](Cc1ccc(-c2ccccc2)cc1)NC(=O)C1(S(=O)(=O)Cc2ccccc2)CCCCC1 | – | 65 | 14
7 | COc1ccccc1-c1ccc(C[C@H](NC(=O)C2(S(=O)(=O)Nc3ccccc3)CCCC2)C(=O)O)cc1 | 521 | 15 | –
8 | CCN1CCC(C(=O)N[C@@H](Cc2ccc(-c3ccccc3OC)cc2)C(=O)O)(S(=O)(=O)c2ccccc2)CC1 | 1230 | 31 | –
9 | O=C(O)[C@H](Cc1ccc(-c2ccccc2)cc1)NC(=O)C1(S(=O)(=O)C2CCCCC2)CCCCC1 | – | 14 | 24
10 | CCCCN1CCC(C(=O)N[C@@H](Cc2ccc(-c3ccccc3OC)cc2)C(=O)O)(S(=O)(=O)c2ccccc2)CC1 | 9180 | 51 | –
11 | O=C(O)[C@H](Cc1ccc(-c2ccccc2)cc1)NC(=O)C1(S(=O)(=O)C2CCCCC2)CCCC1 | – | 7 | 16
12 | COc1ccccc1-c1ccc(C[C@H](NC(=O)C2(S(=O)(=O)c3ccccc3)CCS(=O)(=O)CC2)C(=O)O)cc1 | 70 | 1.3 | –
13 | COc1ccccc1-c1ccc(C[C@H](NC(=O)C2(S(=O)(=O)c3ccccc3)CCN(C)CC2)C(=O)O)cc1 | 2000 | 3 | –
14 | COc1ccccc1-c1ccc(C[C@H](NC(=O)C2(S(=O)(=O)c3ccccc3)CCSCC2)C(=O)O)cc1 | 128 | 4.1 | –
15 | COc1ccccc1-c1ccc(C[C@H](NC(=O)C2(S(=O)(=O)c3ccccc3)CCNCC2)C(=O)O)cc1 | 1900 | 20 | –
16 | O=C(O)[C@H](Cc1ccc(-c2ccccc2)cc1)NC(=O)C1(S(=O)(=O)c2ccccc2)Cc2ccccc2C1 | 7340 | 680 | –
17 | CCCCCCCCS(=O)(=O)C1(C(=O)N[C@@H](Cc2ccc(-c3ccccc3)cc2)C(=O)O)CCCC1 | – | 150 | –
18 | COc1ccccc1-c1ccc(C[C@H](NC(=O)C2(S(=O)(=O)c3ccccc3)CC[S+]([O-])CC2)C(=O)O)cc1 (stereo partly specified) | 318 | 4.4 | –
19 | COc1ccccc1-c1ccc(C[C@H](NC(=O)C2(S(=O)(=O)c3ccccc3)CCCN(C)C2)C(=O)O)cc1 (stereo partly specified) | 5790 | 6.6 | –
20 | COc1ccccc1-c1ccc(C[C@H](NC(=O)C2(S(=O)(=O)c3ccccc3)CCN(c3ccccc3)CC2)C(=O)O)cc1 | 1260 | 23 | –

These reach a lower IC50 (Integrin alpha-4/beta-1). Values come first.

Row | IC50 (Integrin alpha-4/beta-7) [nM] | IC50 (Integrin alpha-4/beta-1) [nM] | inhibition [1] [%] | SMILES
21 | 257 | 0.67 | – | COc1cccc(OC)c1-c1ccc(C[C@H](NC(=O)C2(S(=O)(=O)CCN3CCOCC3)CCCNC2)C(=O)O)cc1 (stereo partly specified)
22 | 58 | 0.53 | – | CCS(=O)(=O)C1(C(=O)N[C@@H](Cc2ccc(-c3ccccc3OC)cc2)C(=O)O)CCCC1
23 | 40 | 0.27 | – | COc1ccccc1-c1ccc(C[C@H](NC(=O)C2(S(=O)(=O)c3ccc(F)cc3)CCCC2)C(=O)O)cc1
24 | 147 | 1.2 | – | COc1ccccc1-c1ccc(C[C@H](NC(=O)C2(S(=O)(=O)C3CCCC3)CCCC2)C(=O)O)cc1
25 | 536 | 0.36 | – | COc1cccc(OC)c1-c1ccc(C[C@H](NC(=O)C2(S(=O)(=O)c3ccc(N4CCCC4)cc3)CCCNC2)C(=O)O)cc1 (stereo partly specified)
26 | 96 | 0.15 | – | COc1cccc(OC)c1-c1ccc(C[C@H](NC(=O)C2(S(=O)(=O)c3ccccc3Br)CCCNC2)C(=O)O)cc1 (stereo partly specified)
27 | 13 | 0.19 | – | COc1cccc(OC)c1-c1ccc(C[C@H](NC(=O)C2(S(=O)(=O)c3ccccc3)CCCCC2)C(=O)O)cc1
28 | 436 | 0.77 | – | COc1cccc(OC)c1-c1ccc(C[C@H](NC(=O)C2(S(=O)(=O)Cc3ccccc3)CCCNC2)C(=O)O)cc1 (stereo partly specified)
29 | 388 | 0.39 | – | COc1cccc(OC)c1-c1ccc(C[C@H](NC(=O)C2(S(=O)(=O)c3ccccc3N3CCCC3)CCCNC2)C(=O)O)cc1 (stereo partly specified)
30 | 46 | 0.14 | – | COc1cccc(OC)c1-c1ccc(C[C@H](NC(=O)C2(S(=O)(=O)c3cncn3C)CCCNC2)C(=O)O)cc1 (stereo partly specified)
31 | 5 | 0.22 | – | COc1cccc(OC)c1-c1ccc(C[C@H](NC(=O)C2(S(=O)(=O)c3ccccc3)CCSCC2)C(=O)O)cc1
32 | 3.2 | 0.17 | – | COc1cccc(OC)c1-c1ccc(C[C@H](NC(=O)C2(S(=O)(=O)c3ccccc3)CCC2)C(=O)O)cc1
33 | 622 | 0.48 | – | COc1ccccc1-c1ccc(C[C@H](NC(=O)C2(S(=O)(=O)c3ccccc3)CCCNC2)C(=O)O)cc1 (stereo partly specified)
34 | 83 | 0.13 | – | COc1cccc(OC)c1-c1ccc(C[C@H](NC(=O)C2(S(=O)(=O)c3cccc(Br)c3)CCCNC2)C(=O)O)cc1 (stereo partly specified)
35 | 466 | 1.1 | – | COc1cccc(OC)c1-c1ccc(C[C@H](NC(=O)C2(S(=O)(=O)c3ccccc3)CCN(C)CC2)C(=O)O)cc1
36 | 16 | 1.2 | – | COc1ccccc1-c1ccc(C[C@H](NC(=O)C2(S(=O)(=O)c3ccccc3)CCC2)C(=O)O)cc1
37 | 179 | 0.37 | – | COc1cccc(OC)c1-c1ccc(C[C@H](NC(=O)C2(S(=O)(=O)CCNCCCN(C)C)CCCNC2)C(=O)O)cc1 (stereo partly specified)
38 | 21 | 0.19 | – | COc1cccc(OC)c1-c1ccc(C[C@H](NC(=O)C2(S(C)(=O)=O)CCCNC2)C(=O)O)cc1 (stereo partly specified)
39 | 45 | 0.77 | – | COc1ccccc1-c1ccc(C[C@H](NC(=O)C2(S(=O)(=O)c3ccccc3)CCOC2)C(=O)O)cc1 (stereo partly specified)
40 | 54 | 0.97 | – | CCN(CC)S(=O)(=O)C1(C(=O)N[C@@H](Cc2ccc(-c3ccccc3OC)cc2)C(=O)O)CCCC1
41 | 5 | 0.07 | – | COc1cccc(OC)c1-c1ccc(C[C@H](NC(=O)C2(S(=O)(=O)c3ccc(F)cc3)CCCC2)C(=O)O)cc1
42 | 94 | 0.19 | – | COc1cccc(OC)c1-c1ccc(C[C@H](NC(=O)C2(S(=O)(=O)c3ccc(Br)cc3)CCCNC2)C(=O)O)cc1 (stereo partly specified)
43 | 150 | 0.55 | – | COc1ccccc1-c1ccc(C[C@H](NC(=O)C2(S(=O)(=O)c3ccccc3)CCOCC2)C(=O)O)cc1
44 | 5 | 0.11 | – | COc1cccc(OC)c1-c1ccc(C[C@H](NC(=O)C2(S(=O)(=O)c3ccccc3)CCCC2)C(=O)O)cc1
45 | 5.2 | 0.1 | – | COc1cccc(OC)c1-c1ccc(C[C@H](NC(=O)C2(S(=O)(=O)c3ccccc3)CCOC2)C(=O)O)cc1 (stereo partly specified)
46 | 97 | 0.46 | – | COc1cccc(OC)c1-c1ccc(C[C@H](NC(=O)C2(S(=O)(=O)c3cn(C)cn3)CCCNC2)C(=O)O)cc1 (stereo partly specified)

From ChEMBL document CHEMBL1145739, “N-(3-phenylsulfonyl-3-piperidinoyl)-phenylalanine derivatives as potent, selective VLA-4 antagonists” (Bioorg Med Chem Lett, 2003)
